From patent publication US20100292229A1, “TRYPHOSTIN-ANALOGS FOR THE TREATMENT OF CELL PROLIFERATIVE DISEASES” (The Board of Regents of the University of Texas System, priority 2006, published 2010)

Key:
[1] = system: BV-173R cells (T315I BCR-ABL); experiment: MTT assay after 72 h, BV-173R cells; format: cell-based, human; settings: 72 h of drug incubation
HA-tagged c-myc = target: T1, HA-tagged c-myc (Homo sapiens, UniProt P01106); experiment: HA-tagged c-myc stability in transfected HeLa cells; format: cell-based; settings: 1 h treatment
T1 construct: labeled at the termini as 1 and 439; expressed in transfected cells; host or cells: HeLa
Method: Bottom: Expression vectors for HA-tagged c-myc or HA-tagged IKKγ (tagged at the N-terminus) were transfected (at the DNA content indicated) into HeLa cells as described in the methods section above. Twenty-four h later, cells were treated with Degrasyn for 1 h before harvesting cells, extracting protein and subjecting equal protein lysates to immunoblotting for c-myc (left) or IKKγ (right) using an HA-directed antibody. Actin was immunoblotted as a control for protein loading. […] These cells and transfection system were used to map the domains important for Degrasyn mediated destabilization by deletion analysis (FIG. 20).
Analysis of wild-type and mutant (deleted) c-myc protein stability. A c-myc expression vector (pCGN-MYC) was obtained from Dr. William Tansey (Cold Springs Harbor, N.Y.) and initially used to transfect HeLa cancer cells (with the SN2 cationic lipid). In subsequent studies, the c-myc gene was subcloned downstream of the HA antigen in the pcDNA3.1 vector, allowing efficient detection of transfected c-myc by anti-HA immunoblotting. Multiple site-specific mutations and domain deletions were introduced into the c-myc gene using the Stratagene Quickchange II XL kit and specific dual primer sets. The deletions/mutations were verified by direct sequencing before use. […]

BCR-ABL = target: T2, BCR-ABL (Homo sapiens, UniProt P00519); experiment: BCR-ABL protein level and distribution in K562 cells; format: cell-based
T2 construct: The BCR-ABL expressing CML cell line (K562); endogenous in cells; host or cells: K562; the other entry of the earlier key: BCR (P11274, Breakpoint cluster region protein)
Method: Top: The BCR-ABL expressing CML cell line (K562) was incubated with 5 μM Degrasyn for the interval noted before cells were lysed and protein extracts were analyzed for BCR-ABL protein (using anti-Abl) levels by immunoblotting. The blot was stripped and reprobed for actin as a protein loading control.
Bottom: RNA from cells treated as described above was isolated (TRIzol Reagent) and used as a template to generate cDNA. This material was then used to prime a real-time PCR reaction for bcr-abl and ubiquitin (Ub) transcripts. The values are reported in terms of the ratio of bcr-abl to Ub.
K562 cells were treated with Degrasyn (2 h, 5 μM) before cells were lysates were prepared and analyzed for BCR-ABL, c-Abl and BCR protein levels. Actin was probed on the stripped blot to control for protein loading.
K562 cells were treated with nothing (Control), vehicle (DMSO; 0.1%), 5 μM Degrasyn or 5 μM geldanamycin for the interval indicated. Cell lysates were prepared and BCR-ABL, HSP70 and Actin were subjected to immunoblotting.
K562 cells were treated with […] Degrasyn for 1 to 2 h before equal protein cell extracts were immunoblotted for BCR-ABL, c-Abl, BCR, HSP90, HSP70 and actin.
K562 cells were treated with Degrasyn (5 μM) for the interval indicated before cell lysates were prepared (Soluble Fraction; prepared in buffer containing 1% NP-40, 0.5% Na-deoxycholate, 0.1% Na-dodecyl sulfate). […]
Western Blot analysis. Cells were harvested, washed twice in cold 1×PBS and lysed in modified RIPA lysis buffer (150 mM NaCl, 1% NP-40, 0.5% Na-deoxycholate [DOC], 0.1% Na-dodecyl sulfate [SDS], 50 mM Tris-HCl (pH 7.5), 1 mM EDTA, 1 mM NaF, 2 mM Na-vanadate, with protease inhibitors (1 mM PMSF, 1 mM benzamidine, 10 μg/ml aprotinin, 10 μg/ml leupeptin) on ice for 30 min. The lysed cells were centrifuged at 13,000 rpm for 30 min and the supernatant collected. The protein concentration of the cell lysate was determined by the Bradford Protein Assay. Fifty to 60 μg of protein were resolved in a 10% SDS-PAGE, and transferred to a PVDF membrane. […]
Real-Time Quantitative TR-PCR analysis of bcr/abl mRNA. […]

T2 sequence (P00519 with tags, fused parts or gaps): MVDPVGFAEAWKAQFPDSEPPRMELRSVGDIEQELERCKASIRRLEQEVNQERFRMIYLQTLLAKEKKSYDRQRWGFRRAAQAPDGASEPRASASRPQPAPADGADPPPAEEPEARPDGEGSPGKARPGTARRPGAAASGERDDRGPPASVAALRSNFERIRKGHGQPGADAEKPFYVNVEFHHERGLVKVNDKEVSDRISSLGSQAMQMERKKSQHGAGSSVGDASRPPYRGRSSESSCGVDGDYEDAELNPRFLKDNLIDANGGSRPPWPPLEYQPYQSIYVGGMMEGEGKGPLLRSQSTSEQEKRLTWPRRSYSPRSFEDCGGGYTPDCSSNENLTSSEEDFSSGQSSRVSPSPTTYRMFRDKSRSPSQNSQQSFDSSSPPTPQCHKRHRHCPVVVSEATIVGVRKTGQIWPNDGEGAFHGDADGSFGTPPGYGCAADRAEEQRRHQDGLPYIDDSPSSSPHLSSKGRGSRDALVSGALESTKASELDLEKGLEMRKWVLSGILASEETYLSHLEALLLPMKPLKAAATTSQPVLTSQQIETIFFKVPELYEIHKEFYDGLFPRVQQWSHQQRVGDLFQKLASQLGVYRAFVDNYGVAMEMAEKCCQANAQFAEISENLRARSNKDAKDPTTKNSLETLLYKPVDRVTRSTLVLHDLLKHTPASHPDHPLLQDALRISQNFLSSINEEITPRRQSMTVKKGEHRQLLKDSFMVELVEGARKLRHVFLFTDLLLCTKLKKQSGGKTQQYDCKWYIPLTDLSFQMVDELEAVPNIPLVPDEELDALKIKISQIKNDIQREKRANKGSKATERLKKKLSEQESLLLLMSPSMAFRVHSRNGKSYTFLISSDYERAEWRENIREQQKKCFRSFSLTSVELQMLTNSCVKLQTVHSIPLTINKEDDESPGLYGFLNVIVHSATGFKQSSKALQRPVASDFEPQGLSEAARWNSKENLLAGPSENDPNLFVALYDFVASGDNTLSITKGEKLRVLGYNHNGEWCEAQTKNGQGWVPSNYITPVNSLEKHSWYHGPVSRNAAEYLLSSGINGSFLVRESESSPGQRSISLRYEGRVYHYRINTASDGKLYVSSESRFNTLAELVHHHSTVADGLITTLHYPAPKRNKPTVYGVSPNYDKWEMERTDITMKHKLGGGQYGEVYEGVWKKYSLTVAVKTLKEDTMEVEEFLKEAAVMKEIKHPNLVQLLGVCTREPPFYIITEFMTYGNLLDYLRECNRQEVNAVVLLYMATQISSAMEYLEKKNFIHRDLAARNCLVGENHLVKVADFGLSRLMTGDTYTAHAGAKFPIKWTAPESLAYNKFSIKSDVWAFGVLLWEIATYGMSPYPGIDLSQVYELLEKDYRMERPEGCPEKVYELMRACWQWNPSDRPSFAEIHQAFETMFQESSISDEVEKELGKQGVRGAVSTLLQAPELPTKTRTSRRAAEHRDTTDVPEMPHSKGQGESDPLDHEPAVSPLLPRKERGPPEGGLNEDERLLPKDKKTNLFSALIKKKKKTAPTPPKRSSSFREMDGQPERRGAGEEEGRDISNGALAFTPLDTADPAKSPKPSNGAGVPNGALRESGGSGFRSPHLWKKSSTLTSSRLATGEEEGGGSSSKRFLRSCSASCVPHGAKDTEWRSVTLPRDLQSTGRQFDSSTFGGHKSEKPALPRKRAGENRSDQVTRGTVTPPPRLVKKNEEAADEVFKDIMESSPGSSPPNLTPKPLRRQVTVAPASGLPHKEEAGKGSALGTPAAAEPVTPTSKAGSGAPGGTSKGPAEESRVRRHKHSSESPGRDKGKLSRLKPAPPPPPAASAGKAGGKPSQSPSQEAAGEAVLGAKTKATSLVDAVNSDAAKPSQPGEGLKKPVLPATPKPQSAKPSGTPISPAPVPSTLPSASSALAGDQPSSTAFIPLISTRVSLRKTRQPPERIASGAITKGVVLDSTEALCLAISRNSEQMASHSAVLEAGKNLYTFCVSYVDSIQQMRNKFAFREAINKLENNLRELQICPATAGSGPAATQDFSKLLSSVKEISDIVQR
T1 sequence (P01106 16-454): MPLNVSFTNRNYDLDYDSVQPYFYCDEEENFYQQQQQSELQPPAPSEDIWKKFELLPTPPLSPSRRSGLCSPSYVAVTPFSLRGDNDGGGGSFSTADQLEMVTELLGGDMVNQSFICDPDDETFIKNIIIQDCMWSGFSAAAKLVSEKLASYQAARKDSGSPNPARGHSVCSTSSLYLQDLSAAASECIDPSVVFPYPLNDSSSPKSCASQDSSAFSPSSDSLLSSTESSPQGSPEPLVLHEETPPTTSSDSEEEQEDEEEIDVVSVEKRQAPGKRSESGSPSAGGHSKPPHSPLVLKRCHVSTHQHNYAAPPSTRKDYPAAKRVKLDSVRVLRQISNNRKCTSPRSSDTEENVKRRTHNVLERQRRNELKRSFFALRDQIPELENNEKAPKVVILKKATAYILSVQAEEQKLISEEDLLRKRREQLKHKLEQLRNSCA

For CCC[C@H](NC(=O)/C(C#N)=C/c1cccc(Br)n1)c1ccccc1 [Degrasyn], the “Activity in MTT assay, BV-173R vs BV-173” value [1] was “equally active against both cell types”, the “HA-tagged c-myc and HA-tagged IKKγ levels” value (HA-tagged c-myc) was “reduced HA-tagged c-myc but did not affect HA-tagged IKKγ” and the “Cytoplasmic staining of BCR-ABL (microscopy)” value (BCR-ABL; 5 μM) was “reduced cytoplasmic staining of BCR-ABL”. For the same molecule, the “BCR-ABL, c-Abl, BCR, HSP90, HSP70 levels” value (BCR-ABL; 5 µM, 1 to 2 h) was “down-regulated” and the “BCR-ABL, c-Abl and BCR protein levels” value (BCR-ABL; 2 h, 5 μM) was “reduced BCR-ABL protein levels but had minimal effects on c-Abl and BCR”.
